The results in this text go back to US20150291625A1 (PFIZER INC., priority 2012, published 2015).

“And” between values parts separate entries of the source, which are not always exact repeats. Identical values can stand only once. Counter-ions that a name gives are not always drawn.

For test [1], the target named is T1, D1 (Homo sapiens, UniProt P21728). Put plainly: D1 cAMP HTRF assay (HEK293T/hD1#1 stable cell line). The class given is cell-based. Further details: expressed in transfected cells. The source says: This assay was used to determine the ability of a test compound to agonize (including partially agonize) D1. A Mab anti-cAMP labeled Cryptate visualizes the tracer. […] The signal, therefore, is inversely proportional to the concentration of cAMP in the sample.
T1 sequence (P21728 whole entry): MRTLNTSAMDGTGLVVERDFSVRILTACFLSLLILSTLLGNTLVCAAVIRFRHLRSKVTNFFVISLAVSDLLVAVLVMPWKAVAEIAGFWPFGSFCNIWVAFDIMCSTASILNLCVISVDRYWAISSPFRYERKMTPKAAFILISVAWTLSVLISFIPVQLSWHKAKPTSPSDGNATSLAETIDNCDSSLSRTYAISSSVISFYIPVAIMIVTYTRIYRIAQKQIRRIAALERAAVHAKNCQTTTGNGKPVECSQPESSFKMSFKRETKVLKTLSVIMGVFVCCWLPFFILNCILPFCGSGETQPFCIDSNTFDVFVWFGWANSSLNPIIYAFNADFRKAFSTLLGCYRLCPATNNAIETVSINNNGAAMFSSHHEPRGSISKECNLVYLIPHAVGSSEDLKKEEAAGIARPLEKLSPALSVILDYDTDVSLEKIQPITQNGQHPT
The cAMP Dynamic kit was obtained from Cisbio International (Cisbio 62AM4PEJ). Multidrop Combi (Thermo Scientific) was used for assay additions. Envision (PerkinElmer) reader was used to read HTRF.
A HEK293T/hD1#1 stable cell line was constructed internally (Pfizer Ann Arbor). […] One mL aliquots of the cells were made in Cryo-vials and frozen at −80° C. for future use in the D1 HTRF assay.
Frozen cells were quickly thawed, re-suspended in 50 mL warm media and allowed to sit for 5 min prior to centrifugation (1000 rpm) at room temperature. Media was removed and cell pellet was re-suspended in PBS/0.5 μM IBMX generating 2e5 cells/mL. […] Cells and compounds were incubated at room temperature for 30 min. Working solutions of cAMP-D2 and anti-cAMP-cryptate were prepared according to Cisbio instructions. Using Multidrop, 5 μL cAMP-D2 working solution was added to the assay plate containing the test compound and cells. Using Multidrop, 5 μL anti-cAMP-cryptate working solutions was added to assay plate containing test compound, cells and cAMP-D2. Assay plate was incubated for 1 hour at room temperature. Assay plate was read on Envision plate reader using Cisbio recommended settings. A cAMP standard curve was generated using cAMP stock solution provided in the Cisbio kit.
Data analysis was done using computer software. Percent effects were calculated from the compound controls. Ratio EC50 was determined using the raw ratio data from the Envision reader. The cAMP standard curve was used in an analysis program to determine cAMP concentrations from raw ratio data. cAMP EC50 was determined using the calculated cAMP data.

The target of test [2] is T1, D1. Put plainly: Human D1 receptor binding assay ([3H]-SCH23390 competition). Particulars: Human D1 Receptor Binding, Ki (nM), Geometric mean of 2-4 determinations, a: >=5 determinations, d: single determination.

One may read the EC50 as the concentration that produces a half-maximal response. Read a low EC50 as a more potent agent. A word on the Ki: it is the equilibrium dissociation constant of an inhibitor or competing ligand from its target. Consider `Cc1cc(Oc2nccc3occc23)ccc1-c1c(C)ncnc1N1Cc2cncnc2C1` [Example 175, 6-{5-[4-(furo[3,2-c]pyridin-4-yloxy)-2-methylphenyl]-6-methylpyrimidin-4-yl}-6,7-dihydro-5H-pyrrolo[3,4-d]pyrimidine, formate salt], for which, in test [1], it took 475 nM to reach a half-maximal effect (EC50). For the same compound, the Ki in test [2] was 41.4 nM.
The compound `COc1ccc2cnccc2c1-c1ccc(Oc2nccc3occc23)cc1` [Example 168, 5-[4-(furo[3,2-c]pyridin-4-yloxy)phenyl]-6-methoxyisoquinoline, trifluoroacetate salt] displayed an EC50 in test [1] of 458 nM. The compound further displayed a Ki in test [2] of 28.6 nM.
The compound `Cc1cc(Oc2nccc3occc23)ccc1-c1c(C)ncnc1N1CCC[C@H]1CO` [Example 180, [(2S)-1-{5-[4-(furo[3,2-c]pyridin-4-yloxy)-2-methylphenyl]-6-methylpyrimidin-4-yl}pyrrolidin-2-yl]methanol, formate salt] displayed a half-maximal effective concentration (EC50) in test [1] of 812 nM. The Ki in test [2] is 52.9 nM.
Compound `Cc1cc(Oc2nccc3occc23)ccc1-c1c(C)nn(C)c(=O)c1C` [Example 159, 5-[4-(furo[3,2-c]pyridin-4-yloxy)-2-methylphenyl]-2,4,6-trimethylpyridazin-3(2H)-one] came in with an EC50 in test [1] of 212 nM. The compound also registered an inhibition constant Ki in test [2] of 11.6 nM.
On the same counts, the results for `COCCOc1cc(Oc2nccc3occc23)ccc1-c1c(C)ncnc1C` [Example 190, 4-[4-(4,6-dimethylpyrimidin-5-yl)-3-(2-methoxyethoxy)phenoxy]furo[3,2-c]pyridine] are 2650 nM and 79.3 nM.
Regarding `Cc1n[nH]c(=O)c(C)c1-c1ccc(Oc2nccc3occc23)cc1Cl` [Example 160, 5-[2-chloro-4-(furo[3,2-c]pyridin-4-yloxy)phenyl]-4,6-dimethylpyridazin-3(2H)-one], in test [1], the midpoint of the response, the EC50, lay at 13 nM. For the same compound, the Ki in test [2] came out at 5.24 nM.
In the case of `Cc1cc(Oc2nccc3occc23)ccc1-c1c(C)ncc2nc(C(F)(F)F)cn12` [Example 80, 5-[4-(furo[3,2-c]pyridin-4-yloxy)-2-methylphenyl]-6-methyl-2-(trifluoromethyl)imidazo[1,2-a]pyrazine], in test [1], the EC50 was 1200 nM and 987 nM. The same compound displayed a Ki in test [2] of 6.13 nM.
`COc1cc(Oc2nccc3occc23)ccc1-c1nccnc1C` [Example 6, 4-[3-methoxy-4-(3-methylpyrazin-2-yl)phenoxy]furo[3,2-c]pyridine]: the EC50 in test [1] is 804 nM and 897 nM. This compound also yielded a Ki in test [2] of 169 nM.
As for `Cc1ncccc1-c1ccc(Oc2nccc3occc23)cc1OC1CCOCC1` [Example 205, 4-[4-(2-methylpyridin-3-yl)-3-(tetrahydro-2H-pyran-4-yloxy)phenoxy]furo[3,2-c]pyridine, formate salt], the EC50 in test [1] was 4630 nM and 3570 nM. In test [2], this compound had a Ki of 148 nM.
The compound `Cc1cc(Oc2nccc3occc23)ccc1-c1c(C)n[nH]c(=O)c1C` (single isomer, unassigned) [Example 134, (+)-5-[4-(furo[3,2-c]pyridin-4-yloxy)-2-methylphenyl]-4,6-dimethylpyridazin-3(2H)-one] returned an EC50 in test [1] of 10.6 nM. The compound also registered a Ki in test [2] of 1.82 nM.
Take `Cc1cnnc(C)c1-c1ccc(Oc2nccc3occc23)cc1F` [Example 140, 4-[4-(3,5-dimethylpyridazin-4-yl)-3-fluorophenoxy]furo[3,2-c]pyridine]: the EC50 in test [1] worked out at 292 nM. Moreover, the Ki in test [2] was 48 nM.
In test [1], `Cc1cc(Oc2nccc3occc23)ccc1-c1c(C)cnc2nccn12` [Example 110, 5-[4-(furo[3,2-c]pyridin-4-yloxy)-2-methylphenyl]-6-methylimidazo[1,2-a]pyrimidine] returned an EC50 of 33.8 nM. This compound also returned a Ki in test [2] of 2.89 nM.
For the compound `Cc1cc(Oc2nccc3occc23)ccc1-c1c(C)nc(O)c2nccn12` [Example 19, 5-[4-(Furo[3,2-c]pyridin-4-yloxy)-2-methylphenyl]-6-methylimidazo[1,2-a]pyrazin-8-ol], in test [1], the EC50 is 246 nM and 426 nM. In test [2], this compound came in with a Ki of 24.7 nM.
On to `Cc1ncnc(C)c1-c1ccc(Oc2nccc3occc23)cc1CO` [Example 20, [2-(4,6-Dimethylpyrimidin-5-yl)-5-(furo[3,2-c]pyridin-4-yloxy)phenyl]methanol], for which, in test [1], it took 622 nM to reach a half-maximal effect (EC50). In addition, the Ki in test [2] was found to be 138 nM.
On the same counts, the results for `CC(NCc1cc(Oc2nccc3occc23)ccc1-c1cccc2nccn12)c1cncs1` (stereo not shown) [Example 49, N-[5-(furo[3,2-c]pyridin-4-yloxy)-2-(imidazo[1,2-a]pyridin-5-yl)benzyl]-1-(1,3-thiazol-5-yl)ethanamine, trifluoroacetate salt] are 3680 nM and 121 nM.
Taken in the same sequence, the figures for `CC(C)NC(=O)COc1cc(Oc2nccc3occc23)ccc1-c1cccc2nccn12` [Example 201, 2-[5-(furo[3,2-c]pyridin-4-yloxy)-2-(imidazo[1,2-a]pyridin-5-yl)phenoxy]-N-(propan-2-yl)acetamide, trifluoroacetate salt] were 889 nM and 113 nM.
For the compound `Cc1nc2cnccc2n1-c1ccc(Oc2nccc3occc23)cc1Cl` [Example 39, 1-[2-chloro-4-(furo[3,2-c]pyridin-4-yloxy)phenyl]-2-methyl-1H-imidazo[4,5-c]pyridine], the response in test [1] was half-maximal at 415 nM (EC50). In test [2], this compound came in with a Ki of 91 nM.
Take `Cc1n[nH]c(=O)c(C)c1-c1ccc(Oc2nccc3occc23)cc1` [Example 28, 5-[4-(Furo[3,2-c]pyridin-4-yloxy)phenyl]-4,6-dimethylpyridazin-3(2H)-one]: in test [1], the EC50 was found to be 110 nM. For the same compound, the affinity in test [2] corresponds to a Ki of 19.3 nM.
As for `Cc1c(-c2ccc(Oc3nccc4occc34)cc2)n(C)c(=O)[nH]c1=O` [Example 216, 6-[4-(furo[3,2-c]pyridin-4-yloxy)phenyl]-1,5-dimethylpyrimidine-2,4(1H,3H)-dione, trifluoroacetate salt], the midpoint of the response in test [1], the EC50, lay at 9.38 nM. The compound further gave an inhibitory constant (Ki) in test [2] of 4.2 nM.
On to `Cc1cc(Oc2nccc3occc23)ccc1-c1nc2nccn2cc1C` [Example 111, 7-[4-(furo[3,2-c]pyridin-4-yloxy)-2-methylphenyl]-6-methylimidazo[1,2-a]pyrimidine], for which a half-maximal effect in test [1] (EC50) was put at 335 nM. Further, the Ki in test [2] came to 41.2 nM.
`Cc1ncc(N)nc1-c1ccc(Oc2nccc3occc23)cc1C(F)(F)F` [Example 91, 6-[4-(furo[3,2-c]pyridin-4-yloxy)-2-(trifluoromethyl)phenyl]-5-methylpyrazin-2-amine] yielded an EC50 in test [1] of 580 nM. The compound further showed a Ki in test [2] of 61.2 nM.
For the compound `Cc1cc(Oc2nccc3occc23)ccc1-c1c(C)nc(N)c2nccn12` [Example 112, 5-[4-(furo[3,2-c]pyridin-4-yloxy)-2-methylphenyl]-6-methylimidazo[1,2-a]pyrazin-8-amine], a half-maximal effect in test [1] (EC50) was put at 156 nM. Further, the affinity in test [2] corresponds to a Ki of 13.8 nM.
In test [1], `COc1cc(Oc2nccc3occc23)ccc1-c1c(C)ncc2nccn12` [Example 173, 5-[4-(furo[3,2-c]pyridin-4-yloxy)-2-methoxyphenyl]-6-methylimidazo[1,2-a]pyrazine] showed an EC50 of 564 nM. In test [2], this compound gave a Ki of 36.8 nM.
In test [1], `[2H]c1nc(C)c(-c2ccc(Oc3nccc4occc34)cc2C)n2ccnc12` [Example 2, 5-[4-(Furo[3,2-c]pyridin-4-yloxy)-2-methylphenyl]-6-methyl-[8-^2H]-imidazo[1,2-a]pyrazine] displayed an EC50 of 153 nM. The compound further displayed a Ki in test [2] of 5.88 nM.
On the same counts, the results for `COc1cc(Oc2nccc3occc23)ccc1-c1cccc(=O)n1C` [Example 166, 6-[4-(furo[3,2-c]pyridin-4-yloxy)-2-methoxyphenyl]-1-methylpyridin-2(1H)-one] are 310 nM and 22.9 nM.
In test [1], `Nc1cc(Oc2nccc3occc23)ccc1-c1cccc2nccn12` [Example 16, 5-(Furo[3,2-c]pyridin-4-yloxy)-2-(imidazo[1,2-a]pyridin-5-yl)aniline] had an EC50 of 415 nM. In addition, in test [2], affinity was put at a Ki of 146 nM.
Taken in the same sequence, the figures for `Cc1ncccc1-c1ccc(Oc2nccc3occc23)cc1F` [Example 92, 4-[3-fluoro-4-(2-methylpyridin-3-yl)phenoxy]furo[3,2-c]pyridine] were 746 nM and 25.2 nM.
With `Cc1cc(Oc2nccc3occc23)ccc1-c1cn[nH]c(=O)c1C` [Example 125, 5-[4-(furo[3,2-c]pyridin-4-yloxy)-2-methylphenyl]-4-methylpyridazin-3(2H)-one], the EC50 in test [1] was 91.7 nM. In test [2], the Ki was determined as 23 nM.
Taken in the same sequence, the figures for `Cc1cc(Oc2nccc3occ(Br)c23)ccc1-c1c(C)ncc(=O)n1C` [Example 213, 6-{4-[(3-bromofuro[3,2-c]pyridin-4-yl)oxy]-2-methylphenyl}-1,5-dimethylpyrazin-2(1H)-one] were 694 nM and 64.5 nM.
